Assay results from patent US20130261146A1, “NITRIC OXIDE AND ITS BIOMEDICAL SIGNIFICANCE” (The Research Foundation of State University of New York, priority 2010, published 2013).

Tests used:
E. coli bacteria = test: Inhibition of bacterial growth in culture; format: cell-based; conditions: E. coli incubated 5 and 24 hours at 37° C, streaked on LB-agar overnight
Description: Example 9 illustrates the anti-microbial effects of extracts including the active chemical agents on cells. A dried, powdered, formulation of a 1:1 mixture of the wheat grass extract and white willow bark extract prepared in Example 1 above was tested for its ability to inhibit bacterial growth in culture. The formulation was reconstituted in 10 ml of LB broth (Amersham Biosciences, Inc.). The broth was then inoculated with E. coli bacteria and incubated for 5 and 24 hours at 37° C. 20 μl of the cultures were streaked on LB-agar plates and incubated overnight at 37° C. […] An additional control experiment was conducted with the known antibacterial agent, SNAP. One μg/ml SNAP was added to LB broth. The broth was then inoculated with E. coli bacteria and incubated for 5 and 24 hours at 37° C. 20 μl of the cultures were streaked on LB-agar plates and incubated overnight at 37° C. Bacterial growth was decreased in the SNAP culture at 5 and 24 hours, as compared to the control.

[1] = system: SK-N-MC (ATCC # HBT-10) cells; test: NO determination of SK-N-MC cells treated with plant extractions; format: cell-based; conditions: 6 mg of crude extraction
Description: Employing the isolation and purification techniques described above, a variety of herbaceous plants were analyzed for their ability to release cNOS—derived nitric oxide in the pedal ganglia and in publicly available SK-N-MC (ATCC # HBT-10) and PC-12 (ATCC # CRL 1721) cells. In Table I, a plus sign indicates detection of at least 1 nM nitric oxide. […] In Table II, results in the SK-N-MC cell line are set forth; the concentration of plant material used and the quantity of NO detected is indicated. […] In Table III, results are set forth for the identical procedures performed using the ganglia cell line. The types of plant materials employed are indicated, for example flowers, leaves, roots, rhizomes, stems, bark. Where not specified, leaves were employed.

SMILES | bacterial growth versus control (LB broth alone) (E. coli bacteria) | Results (nM), NO determination of SK-N-MC cells [1]
CC(=O)NC(C(=O)O)C(C)(C)SN=O (racemic) [SNAP, S-nitroso-N-acetyl-DL-penicillamine] | decreased | 
O=c1c(O)c(-c2ccc(O)c(O)c2)oc2cc(O)cc(O)c12 [Quercetine] |  | 14 nM
